Laboratory results as given in ChEMBL document CHEMBL1649377, “Synthesis, biological assessment and molecular modeling of new dihydroquinoline-3-carboxamides and dihydroquinoline-3-carbohydrazide derivatives as cholinesterase inhibitors, and Ca channel antagonists” (Eur J Med Chem, 2011).

Legend:
Cholinesterase = Cholinesterase (Equus caballus, UniProt P81908); assay: Inhibition of horse serum BChE after 15 mins by Ellman's method
Acetylcholinesterase = Acetylcholinesterase (Electrophorus electricus, UniProt O42275)
Acetylcholinesterase, sequence (O42275 whole entry): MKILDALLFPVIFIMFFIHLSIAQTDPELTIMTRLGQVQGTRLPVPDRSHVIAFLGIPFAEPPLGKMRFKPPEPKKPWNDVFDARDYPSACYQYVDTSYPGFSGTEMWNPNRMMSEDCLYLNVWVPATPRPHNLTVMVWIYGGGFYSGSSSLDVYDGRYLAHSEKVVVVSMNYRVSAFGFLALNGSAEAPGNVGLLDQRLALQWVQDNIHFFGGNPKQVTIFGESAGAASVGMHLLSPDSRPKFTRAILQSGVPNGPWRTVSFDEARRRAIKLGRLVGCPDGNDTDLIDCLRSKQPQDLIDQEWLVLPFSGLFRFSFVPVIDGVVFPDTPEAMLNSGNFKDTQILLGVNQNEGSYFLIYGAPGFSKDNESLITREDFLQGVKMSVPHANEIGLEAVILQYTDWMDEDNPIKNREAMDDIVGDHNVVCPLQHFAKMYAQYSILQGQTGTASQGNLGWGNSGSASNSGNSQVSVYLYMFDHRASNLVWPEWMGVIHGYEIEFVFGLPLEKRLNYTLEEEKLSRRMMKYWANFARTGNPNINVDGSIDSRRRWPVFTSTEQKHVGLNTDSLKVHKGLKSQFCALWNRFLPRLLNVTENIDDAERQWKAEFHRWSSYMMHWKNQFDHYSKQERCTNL
Description: Inhibition of electric eel AChE after 15 mins by Ellman's method

Cholinesterase, sequence (P81908 whole entry): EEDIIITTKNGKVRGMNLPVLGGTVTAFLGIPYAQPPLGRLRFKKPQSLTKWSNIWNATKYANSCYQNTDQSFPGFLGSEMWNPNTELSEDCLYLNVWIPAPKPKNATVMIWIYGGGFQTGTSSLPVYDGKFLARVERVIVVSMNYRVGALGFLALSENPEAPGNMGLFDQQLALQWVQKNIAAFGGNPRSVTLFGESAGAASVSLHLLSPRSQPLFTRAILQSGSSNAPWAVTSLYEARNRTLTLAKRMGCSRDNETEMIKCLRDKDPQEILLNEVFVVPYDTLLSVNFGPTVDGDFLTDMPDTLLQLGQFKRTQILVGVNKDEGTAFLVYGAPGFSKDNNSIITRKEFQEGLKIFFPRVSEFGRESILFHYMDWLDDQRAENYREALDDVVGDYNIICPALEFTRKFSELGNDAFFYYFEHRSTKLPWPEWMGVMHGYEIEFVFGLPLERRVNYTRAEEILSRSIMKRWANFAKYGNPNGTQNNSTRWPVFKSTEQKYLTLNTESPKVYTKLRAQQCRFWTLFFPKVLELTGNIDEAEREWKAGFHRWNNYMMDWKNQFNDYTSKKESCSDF

SMILES | IC50 (Cholinesterase) | IC50 (Acetylcholinesterase)
NCCNCCNCCNC(=O)c1c(O)c2ccccc2[nH]c1=O | 19 µM | 13 µM
Cn1c(=O)c(C(=O)NCCNCCNCCN)c(O)c2ccccc21 | 5.2 µM | > 30 µM
O=C(N/N=C/c1ccc(O)cc1O)c1c(O)c2c(Cl)cccc2[nH]c1=O | > 30 µM | 12 µM
CC1=C2C(=O)Nc3c(cccc3[N+](=O)[O-])C2NC(=O)N1C (racemic) | > 30 µM | 8 µM
CCN1C(=O)NC2C(=C1C)C(=O)Nc1c2cccc1[N+](=O)[O-] (racemic) | > 30 µM | 6 µM
